Test: in vitro
Conditions: human, hela cells, % viability

| SMILES | viability at 28.5 h, 10 µM [%] | viability at 28.5 h, 10 µM (bulk resorufin, single well) [%] |
| --- | --- | --- |
| CC(C)(C)OC(=O)N1CCC(COc2ncc(-c3ccc(C(=O)N4CCC[C@@H]4CO)nc3)cn2)CC1 [CBK170022] | 90.9 |  |
| CC(=O)NCCNC(=O)c1ccc(-c2cnc(OCC3CCN(C(=O)OC(C)(C)C)CC3)nc2)cn1 [CBK170023] | 104 |  |
| COc1cc(C(=O)N2CCC3(CC2)CC(=O)c2ccc(-c4ccc(NS(C)(=O)=O)cc4)cc2O3)cc(OC)c1C [CBK170163] | 90.8 |  |
| CC(=O)N1CCN(c2nnc(-c3ccccc3)o2)CC1 [CBK170332] | 87.9 |  |
| COc1cc(C(=O)N2CCC3(CC2)CC(=O)c2cc(-c4cccc(C)c4)ccc2O3)cc(OC)c1C [CBK170341] | 87.7 |  |
| Cc1c(S(=O)(=O)N2CCN(C)CC2)sc2ccc(C(C)C)cc12 [CBK170362] | 90.1 |  |
| CC(C)OC(=O)C(NC(=O)OC(C)(C)C)c1ccccc1 (stereo not shown) [CBK170399] | 90.4 |  |
| CCOC(=O)N1CCC(Nc2nc3ccccc3nc2OCc2cc(C)on2)CC1 [CBK171825] | 89.2 |  |
| CCC(=O)N1CCC(NC(=O)N(CCc2ccccn2)Cc2ccccc2)CC1 [CBK171898] | 90.9 |  |
| Cn1cccc1C(=O)N1CCC(OCc2cnc(-c3ccc(S(C)(=O)=O)cc3)cn2)CC1 [CBK172007] | 106 |  |
| CC1(COC(=O)N2CCC(OCc3cnc(-c4ccc(S(C)(=O)=O)cc4)cn3)CC2)COC1 [CBK172009] | 86.7 |  |
| Fc1ccccc1C1CCN(c2cncc(N3CCNCC3)n2)CC1 [CBK172236G] | 122 |  |
| CC(C)(C)OC(=O)N(c1cncc(N2CCNCC2)n1)[C@@H]1CCOc2ccccc21 [CBK172251G] | 109 |  |
| c1ccc2c(c1)CCC(Oc1cncc(N3CCNCC3)n1)C2 (stereo not shown) [CBK172295G] | 97 |  |
| COc1cccc2c1OCC[C@@H]2Oc1cncc(N2CCNCC2)n1 [CBK172305G] | 106 |  |
| Clc1ccc2c(c1)OCC[C@@H]2Oc1cncc(N2CCNCC2)n1 [CBK172313G] | 86.2 |  |
| Cc1ccc2c(c1)C(Oc1cncc(N3CCNCC3)n1)CCO2 (stereo not shown) [CBK172334G] | 99.7 |  |
| c1ccc(N2CCOCC2)c(COc2cncc(N3CCNCC3)n2)c1 [CBK172351G] | 105 |  |
| CC(C)(C)OC(=O)N1CCN(c2cncc(OC3CSCc4ccccc43)n2)CC1 (stereo not shown) [CBK172354] | 105 |  |
| Cc1sc(-c2ccc(C(F)(F)F)cc2)nc1COc1cncc(N2CCNCC2)n1 [CBK172383G] | 85.6 |  |
| c1ccc2c(c1)CCC[C@H]2Oc1cncc(N2CCNCC2)n1 [CBK172388G] | 90.7 |  |
| N[C@H](CCc1nc2ccccc2[nH]1)C(=O)O [CBK172614] | 98.2 |  |

| SMILES | viability at 28.5 h, 10 µM [%] | viability at 28.5 h, 10 µM (bulk resorufin, single well) [%] |
| --- | --- | --- |
| C[S+]([O-])c1ccc(-c2ccc(CN(C3CC3)C3CCN(c4ncccn4)CC3)cn2)cc1 (stereo not shown) [CBK172877] | 90.2 |  |
| N#CCc1c(-c2ccc(Br)cc2)nc2ccccn12 [CBK172896] | 100 |  |
| CN(Cc1cnc(-c2ccncc2)cn1)C1CCN(C(=O)OC(C)(C)C)CC1 [CBK172979] | 93.4 |  |
| Cc1ccc(S(=O)(=O)Nc2ccc3c(ccn3CCC3CCN(C(=O)OC(C)(C)C)CC3)c2)cc1Cl [CBK172990] | 94.6 |  |
| CC(C)(C)OC(=O)N1CCC(C(Cc2ccc(-c3ccc(S(C)(=O)=O)cc3)cc2)C(=O)NCCOCCO)CC1 (stereo not shown) [CBK173128] | 83.7 |  |
| COCCNC(=O)C(Cc1ccc(-c2ccc(S(C)(=O)=O)cc2)cc1)C1CCN(C(=O)OC(C)(C)C)CC1 (stereo not shown) [CBK173129] | 125 |  |
| CC(C)(C)OC(=O)N1CCC(C2OCc3cc(C(=O)N4CCNC(=O)C4)ccc3O2)CC1 (stereo not shown) [CBK173277] | 105 |  |
| CCN(CC)C(=O)C1CCCN(C(=O)c2ccc3c(c2)COC(C2CCN(C(=O)OC(C)(C)C)CC2)O3)C1 (stereo not shown) [CBK173279] | 100 |  |
| CC(C)COC(=O)N1CCN(C2CCc3cc(-c4ccc([S+](C)[O-])cc4)ccc3C2)CC1 (stereo not shown) [CBK173425] | 89.8 |  |
| CC(C)(C)OC(=O)N1CCC(C2OCc3cc(-c4ccc(C(=O)N5CCOCC5)o4)ccc3O2)CC1 (stereo not shown) [CBK173615] | 85.6 |  |
| CNC(=O)c1ccc(-c2cnc(NCC3CCN(C(=O)OC(C)(C)C)CC3)cn2)cc1 [CBK173726] | 111 |  |
| Cc1cc(COc2nc3ccccc3nc2N2CCCC2C(=O)OC(C)(C)C)no1 (stereo not shown) [CBK173753] | 85.8 |  |
| CCCNCCc1ccc(NC(=O)NCCc2ccccc2)cc1 [CBK173873T] | 93.5 |  |
| Cc1cc(COc2nc3ccccc3nc2NCCC2=CCCCC2)no1 [CBK173982] | 115 |  |
| Cc1cc(COc2nc3ccccc3nc2NCCCCO)no1 [CBK173985] | 94.1 |  |
| Cc1cc(COc2nc3ccccc3nc2NCCC(C)O)no1 (stereo not shown) [CBK173999] | 95.7 |  |
| Cc1cc(COc2nc3ccccc3nc2NC(C)C(C)C)no1 (stereo not shown) [CBK174007] | 117 |  |
| CN(C)CCNC(=O)c1ccc(-c2ccccc2S(=O)(=O)Nc2ccc(C(=O)O)c(O)c2)cc1 [CBK174050] | 106 |  |
| NC1CCN(c2ncccn2)CC1 [CBK174054] | 98.7 |  |
| Cc1ccc(NC(=O)c2ccncc2)cc1C [CBK174646] | 97.5 |  |
| CCN1CCC[C@@H]1CNC(=O)c1ccncc1 [CBK174659] | 113 |  |
| CCN1CCC[C@@H]1CNC(=O)c1cc(Cl)nc(OC)c1 [CBK174692] | 88.3 |  |

| SMILES | viability at 28.5 h, 10 µM [%] | viability at 28.5 h, 10 µM (bulk resorufin, single well) [%] |
| --- | --- | --- |
| CCOC(=O)N1CCC2(CC1)OCc1ccc(Oc3ccncc3)cc1O2 [CBK174776] |  | 102 |
| CCOC(=O)N1CCC2(CC1)OCc1ccc(-c3ccc(S(C)(=O)=O)nc3)cc1O2 [CBK174780] |  | 92 |
| CNc1nc(NC(C#N)c2ccccc2)ncc1N (stereo not shown) [CBK174783] | 107 |  |
| COCC(=O)N1CCC(NC(=O)N(CCc2ccccc2)Cc2ccccc2)CC1 [CBK174877] | 102 |  |
| COc1cccc(CSc2ccc(CN3CCOCC3)cc2F)c1 [CBK174976] | 87.1 |  |
| CC(=O)c1ccc(NC(=O)Nc2nnc(CCN3CCCC3)s2)cc1 [CBK174990] | 92.6 |  |
| CN(C)C(=O)c1ccc(-c2cnc(OCC3CCN(C(=O)OC(C)(C)C)CC3)cn2)cc1F [CBK175076] | 118 |  |
| Cc1cc(C(=O)NCCO)ccc1Br [CBK175092] | 92 |  |
| O=C(O)CCc1cccnc1 [CBK175283] | 92.2 |  |
| CC(C)(C)c1csc(NC(=O)C2CC(=O)N(c3cccc(C(F)(F)F)c3)C2)n1 (stereo not shown) [CBK175545] | 106 |  |
| CC(C)(C)c1csc(NC(=O)C2CC(=O)N(Cc3cccs3)C2)n1 (stereo not shown) [CBK175547] | 109 |  |
| Brc1cccc(OCc2cccs2)c1 [CBK176011] | 99 |  |
| Clc1cncc(OCCCCOc2ccccc2)n1 [CBK176018] | 108 |  |
| Fc1ccccc1CCOc1cncc(Cl)n1 [CBK176038] | 86 |  |
| Clc1cncc(OC(c2ccccc2)C2CC2)n1 (stereo not shown) [CBK176042] | 78 |  |
| COc1ccc2cc(OCCO)ccc2c1 [CBK176054] | 63.6 |  |
| COc1cccc(COc2cncc(Cl)n2)c1OC [CBK176057] | 86.3 |  |
| COc1ccc(-c2cnccc2-n2ccnc2)cn1 [CBK177147] | 113 |  |
| CCc1ccc(-c2cnccc2-n2ccnc2)cc1 [CBK177151] | 93 |  |
| COc1ccccc1-c1cnccc1-n1ccnc1 [CBK177153] | 100 |  |
| c1ccc(OCCOc2cccnc2N2CCNCC2)cc1 [CBK200000C] | 90.1 |  |
| O=C1CCc2cccc(OCCOc3nccnc3N3CCNCC3)c21 [CBK200001G] | 101 |  |

| SMILES | viability at 28.5 h, 10 µM [%] | viability at 28.5 h, 10 µM (bulk resorufin, single well) [%] |
| --- | --- | --- |
| FC(F)(F)c1ccc(N2CCNCC2)nc1OCCOc1ccc2ccccc2c1 [CBK200002A] | 92.1 |  |
| c1ccc2c(c1)CCC2Oc1cncc(N2CCNCC2)n1 (stereo not shown) [CBK200005G] | 91 |  |
| C(#Cc1csc(COc2cncc(N3CCNCC3)n2)c1)c1ccccc1 [CBK200006G] | 92.5 |  |
| c1cncc(CNc2cccc(OCCOc3nccnc3N3CCNCC3)c2)c1 [CBK200008] | 89.2 |  |
| N#Cc1ccccc1Cn1ccc2c(N3CCNCC3)cccc21 [CBK200015C] | 102 |  |
| O=S(=O)(Cc1ccccc1)c1cc2c(N3CCNCC3)nccc2s1 [CBK200017C] | 91.9 |  |
| CC(C)(C)c1ccccc1[S+]([O-])c1cc2c(N3CCNCC3)nccc2s1 (stereo not shown) [CBK200018C] | 103 |  |
| O=C(O)c1ccc(NS(=O)(=O)c2ccc(Cl)cc2)cc1O [CBK200023] | 106 |  |
| CC1(C)CC(=O)c2sc(NS(=O)(=O)c3sc(Cl)cc3Br)nc2C1 [CBK200029] | 109 |  |
| COc1ccc2c(c1)CCc1sc(NS(=O)(=O)c3cccc(Cl)c3C)nc1-2 [CBK200033] | 84.3 |  |
| Cc1cc(Cl)cc(Cl)c1S(=O)(=O)Nc1nc2c(s1)C(=O)CC(C)(C)C2 [CBK200034] | 104 |  |
| C=CCN(c1ccccc1)S(=O)(=O)c1ccc(C(C)(C)CC)cc1 [CBK200036] | 95.7 |  |
| CCC(C)(C)c1ccc(S(=O)(=O)Nc2ccc(F)cc2F)cc1 [CBK200039] | 95.7 |  |
| CC(=O)c1sccc1NS(=O)(=O)c1ccc2ccccc2c1 [CBK200042] | 89.5 |  |
| Cc1c(Cl)cccc1S(=O)(=O)NC1=NC(=O)C(CC(=O)Nc2ccccc2Cl)S1 (stereo not shown) [CBK200043] | 107 |  |
| CCOC(=O)C1CCN(S(=O)(=O)c2ccc(C(C)C)cc2)CC1 [CBK200044] | 86.4 |  |
| O=[N+]([O-])c1ccc(S(=O)(=O)Nc2nnc(Cc3ccc(Cl)cc3)s2)cc1 [CBK200046] | 93.2 |  |
| O=S(=O)(Nc1nnc(C(F)(F)F)s1)c1ccc(Br)cc1 [CBK200047] | 89.6 |  |
| O=S(=O)(Nc1nnc(Cc2ccc(Cl)cc2)s1)c1ccc(Cl)cc1 [CBK200048] | 90.2 |  |
| Cc1c(Cl)cccc1S(=O)(=O)Nc1nc(C(C)Sc2nccn2C)ns1 (stereo not shown) [CBK200052] | 88.5 |  |
| CCCC(=O)NCC(C)c1nsc(NS(=O)(=O)c2cccc(Cl)c2C)n1 (stereo not shown) [CBK200053] | 96 |  |
| O=S(=O)(c1ccc2ccccc2c1)N1CCCCC1CO (stereo not shown) [CBK200055] | 100 |  |

— article PMC12040169 (PLOS Biology, 2025)
